From ChEMBL document CHEMBL1141977 (Bioorg Med Chem Lett, 2005)

Columns and labels:
[1] = target: T1, 5-hydroxytryptamine receptor 1A (Homo sapiens) (UniProt P08908); test: Intrinsic activity towards 5-HT1A receptor using [35S]GTP-gamma-S, binding assay; assay type: functional
T1 sequence (whole entry): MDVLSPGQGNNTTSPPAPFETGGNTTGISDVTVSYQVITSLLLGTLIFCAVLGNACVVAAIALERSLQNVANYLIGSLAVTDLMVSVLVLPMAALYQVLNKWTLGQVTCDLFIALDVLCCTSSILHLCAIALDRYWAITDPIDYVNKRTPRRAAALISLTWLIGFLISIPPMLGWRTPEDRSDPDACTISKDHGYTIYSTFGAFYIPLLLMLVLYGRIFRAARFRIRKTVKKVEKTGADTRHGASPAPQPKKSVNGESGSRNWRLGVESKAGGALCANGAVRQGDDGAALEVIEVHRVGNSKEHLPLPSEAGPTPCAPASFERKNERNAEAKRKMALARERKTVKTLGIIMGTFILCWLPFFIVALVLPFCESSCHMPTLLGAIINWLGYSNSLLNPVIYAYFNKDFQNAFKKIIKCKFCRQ

[2] = target: Sodium-dependent serotonin transporter (Rattus norvegicus, UniProt P31652); test: Binding affinity determined against Serotonin transporter determined by displacement of [3H]paroxetine from rat cortical membranes; assay type: cell membranes, Membrane
[3] = target: T2, 5-hydroxytryptamine receptor 1A (Homo sapiens, UniProt P08908); test: Binding affinity determined against human 5-hydroxytryptamine 1A receptors transfected into CHO cells.; assay type: cell-based
T2 sequence (P08908 whole entry): T1 sequence (whole entry)

Sodium-dependent serotonin transporter, sequence (P31652 whole entry): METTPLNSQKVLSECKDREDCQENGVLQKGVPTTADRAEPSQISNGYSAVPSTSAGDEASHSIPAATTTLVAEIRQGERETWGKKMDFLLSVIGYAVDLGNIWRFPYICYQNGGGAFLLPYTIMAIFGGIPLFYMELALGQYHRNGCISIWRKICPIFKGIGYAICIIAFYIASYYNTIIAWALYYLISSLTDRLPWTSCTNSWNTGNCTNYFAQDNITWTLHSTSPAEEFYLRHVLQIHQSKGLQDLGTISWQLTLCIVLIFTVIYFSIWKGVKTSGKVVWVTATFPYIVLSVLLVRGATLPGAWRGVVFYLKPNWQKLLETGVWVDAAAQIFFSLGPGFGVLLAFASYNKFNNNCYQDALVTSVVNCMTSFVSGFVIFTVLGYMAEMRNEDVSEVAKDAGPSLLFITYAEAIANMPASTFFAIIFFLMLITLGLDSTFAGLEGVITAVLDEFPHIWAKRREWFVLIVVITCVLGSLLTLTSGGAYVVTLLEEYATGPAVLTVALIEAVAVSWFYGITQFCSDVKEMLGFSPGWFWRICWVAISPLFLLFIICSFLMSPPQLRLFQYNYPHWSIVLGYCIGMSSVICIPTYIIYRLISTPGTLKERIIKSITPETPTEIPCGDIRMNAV

| Compound | Emax [1] | Ki [2] | Ki [3] |
| --- | --- | --- | --- |
| Fc1ccc2[nH]cc([C@H]3CC[C@H](NCCOc4cccc5c4OCCO5)CC3)c2c1 | 43% | 1.05 nM | – |
| COc1ccccc1N1CCN([C@H]2CC[C@@H](c3c[nH]c4ccc(F)cc43)CC2)CC1 | 5% | 3.3 nM | 129 nM |
| COc1ccccc1OCCN[C@H]1CC[C@@H](c2c[nH]c3ccc(F)cc32)CC1 | 22% | – | 307 nM |
| Fc1ccc2[nH]cc([C@H]3CC[C@@H](N4CCN(c5cccc6c5OCCO6)CC4)CC3)c2c1 | 0% | 5.31 nM | – |
| Fc1ccc2[nH]cc([C@H]3CC[C@H](N4CCN(c5cccc6[nH]ccc56)CC4)CC3)c2c1 | 43% | – | – |
| Fc1ccc2[nH]cc([C@H]3CC[C@H](NCCOc4cccc5[nH]ccc45)CC3)c2c1 | 59% | 1.73 nM | – |
| Fc1ccc2[nH]cc([C@H]3CC[C@@H](NCCOc4cccc5c4OCCO5)CC3)c2c1 | 27% | 12.1 nM | – |
| Fc1ccc2[nH]cc([C@H]3CC[C@@H](NCC4COc5ccccc5O4)CC3)c2c1 (stereo not given in full) | 44% | 23.2 nM | 332 nM |
| Fc1ccc2[nH]cc([C@H]3CC[C@@H](N4CCN(c5cccc6[nH]ccc56)CC4)CC3)c2c1 | 10% | – | – |
| Fc1ccc2[nH]cc([C@H]3CC[C@@H](NCCOc4cccc5[nH]ccc45)CC3)c2c1 | 7% | 12.6 nM | – |
| COc1ccccc1N1CCN([C@H]2CC[C@H](c3c[nH]c4ccc(F)cc43)CC2)CC1 | 29% | 46.1 nM | 14.3 nM |
| COc1ccccc1OCCN[C@H]1CC[C@H](c2c[nH]c3ccc(F)cc32)CC1 | 80% | – | 22.4 nM |
| Fc1ccc2[nH]cc([C@H]3CC[C@H](NCC4COc5ccccc5O4)CC3)c2c1 (stereo not given in full) | 94% | 14.1 nM | 194 nM |
| Fc1ccc2[nH]cc([C@H]3CC[C@H](N4CCN(c5cccc6c5OCCO6)CC4)CC3)c2c1 | 57% | 67.2 nM | – |
